Test results taken from publication PMC3288053 (PLoS ONE, 2012).
Read-outs that look alike come from different tables or passages of the source.

What was measured:
CHO-K1/GLUT4 cells = test: Quantification of GLUT4 translocation ratio (IN Cell Analyzer 1000); assay type: cell-based; settings: for EC50: serum-starved cells, read-out: EC50, membrane GLUT4 (GLUT4 translocation)
Method: CHO-K1 cells are transfected with pEGFPN1-GLUT4-myc plasmid using Lipofectamine 2000, and subsequently screened with G418 (800 µg/ml). The CHO-K1/GLUT4 stable cell line is obtained by picking up clones.
CHO-K1/GLUT4 cells are seeded into 96-well plate. After cells reached 100% confluence, F12 medium is changed to 3T3-L1 medium and incubated for 2 days. 8-hour serum starvation later, cells are stimulated with insulin for 5 minutes, fixed with 3.7% formaldehyde for 15 minutes, and labeled with anti-myc monoclonal antibody and secondary antibody (Alexa Fluor 647 conjuncted anti-mouse antibody). Fluorescence pictures were obtained by IN Cell Analyzer 1000 Instrument (GE Healthcare) with the same exposure time. The basic unit comprises several core components including a Nikon microscope and a high-resolution CCD camera. Membrane-located GLUT4 is represented by the intensity of red fluorescence (Alex fluor 647) and normalized by the intensity of green fluorescence (GLUT4-EGFP), which is assigned to the total GLUT4 [46].

TC-PTP = target: T1, TC-PTP (Homo sapiens, UniProt P17706); test: PTP enzyme inhibition assay (pNPP substrate); assay type: biochemical; settings: PTPs 0.3 µM, pNPP 5 mM, 25°C; NI: No inhibition at 100 µM
T1 construct: pGEX4T-1-TC-PTP1–288; GST (N); made in house; host or cells: E. coli BL21 (DE3)
Method: (§1) The enzymatic activities of the recombinant PTPs are measured at 25°C using pNPP as substrate. The initial velocities of enzymatic reactions are determined by continuously measuring the absorbance at 405 nm every 15 s using a microplate spectrophotometer (Bio-Rad). […] To determine the inhibition type, each concentration of Rut (0, 50 and 75 µM) is incubated with PTP1B (0.3 µM) in reaction buffer (50 mM HEPES, pH7.0, 1 mM EDTA, and 100 mM NaCl) for 10 min and the reactions are initiated by different concentrations of pNPP (0.5–10 mM). The inhibition type is determined using double-reciprocal plots. In determination of the selectivity of Rut against PTPs, the result is referred as no inhibition when 100 µM Rut inhibits no enzyme activity. The same reaction systems are designed for all PTPs including PTP1B.

LAR = target: T2, LAR (Homo sapiens, UniProt P10586); test: PTP enzyme inhibition assay (pNPP substrate); assay type: biochemical; settings: PTPs 0.3 µM, pNPP 5 mM, 25°C; NI: No inhibition at 100 µM; read-out: IC50 LAR
T2 construct: pGEX2T-LAR1282–1888; GST (N); made in house; host or cells: E. coli BL21 (DE3)
Method: as §1

CD45 = target: T3, CD45 (Homo sapiens, UniProt P08575); test: PTP enzyme inhibition assay (pNPP substrate); assay type: biochemical; settings: PTPs 0.3 µM, pNPP 5 mM, 25°C; NI: No inhibition at 100 µM
T3 construct: pGEX2T-CD45_560–1256; GST (N); made in house; host or cells: E. coli BL21 (DE3)
Method: as §1

PTP1B = target: T4, PTP1B (Homo sapiens, UniProt P18031); test: PTP enzyme inhibition assay (pNPP substrate); assay type: biochemical; settings: PTPs 0.3 µM, pNPP 5 mM, 25°C; NI: No inhibition at 100 µM
T4 construct: pGEX4T-1-PTP1B1–321; GST (N); made in house; host or cells: E. coli BL21 (DE3)
T4 sequence (P18031 1-321): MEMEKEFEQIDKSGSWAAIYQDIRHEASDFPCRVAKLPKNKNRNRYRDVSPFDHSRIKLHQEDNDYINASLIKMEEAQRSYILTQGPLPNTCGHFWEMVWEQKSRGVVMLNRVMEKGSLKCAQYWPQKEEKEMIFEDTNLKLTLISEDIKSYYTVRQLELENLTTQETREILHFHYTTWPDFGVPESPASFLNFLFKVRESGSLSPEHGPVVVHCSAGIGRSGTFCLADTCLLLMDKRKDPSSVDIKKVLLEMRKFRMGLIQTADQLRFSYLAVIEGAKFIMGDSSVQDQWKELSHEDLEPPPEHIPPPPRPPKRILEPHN
Method: as §1

PTPα = target: T5, PTPα (Homo sapiens, UniProt P18433); test: PTP enzyme inhibition assay (pNPP substrate); assay type: biochemical; settings: PTPs 0.3 µM, pNPP 5 mM, 25°C; NI: No inhibition at 100 µM; read-out: IC50 PTPα
T5 construct: pGEX2T-PTPα182–803; GST (N); made in house; host or cells: E. coli BL21 (DE3)
Method: as §1

3T3-L1 adipocytes = test: 2-Deoxyglucose uptake in 3T3-L1 adipocytes; assay type: cell-based; settings: insulin 17 nM; Rut 5–25 µM, C2 10 µM
Method: 3T3-L1 adipocytes are fully differentiated (the 10th day after MDI stimulation) and seeded into 24-well plate. After incubation with compounds in serum-free medium containing 0.5% BSA for 8 hours, medium is changed to Krebs buffer containing […] insulin and incubated for 30 minutes. In the last 5 minutes, cells are incubated with 2-[^3H]-deoxy-D-glucose. The glucose uptake is stopped by ice-cold PBS, and the cells are then lysed with 0.1% Triton. Finally the radioactivity is calculated by a scintillation counter. Cytochalasin B is used to measure nonspecific uptake, and the value is subtracted from all the data. Radioactivity is normalized by total protein concentration that is measured by BCA kit.

[1] = target: T6, Peroxisome proliferator-activated receptor γ ligand-binding domain PPARγ-LBD(202-477), His-tagged, purified (human, UniProt P37231-2 202-477); test: SPR; Biacore 3000; purified SRC1(613-773) immobilised on a CM5 chip by amine coupling; different concentrations of PPARγ-LBD or RXRα-LBD injected at 20 µL/min for 60 s, dissociation 120 s; running buffer 10 mM HEPES, 150 mM NaCl, 3 mM EDTA, 0.005% P20, pH 7.4; also 1 µM LBD pre-incubated for 1 h with Rut (16.8-100 µM); settings: both partners purified
T6 construct: also called hPPARγ-LBD; source: E. coli BL21 (DE3), purified (His-tag purification, Novagen instructions)
T6 sequence (looked up): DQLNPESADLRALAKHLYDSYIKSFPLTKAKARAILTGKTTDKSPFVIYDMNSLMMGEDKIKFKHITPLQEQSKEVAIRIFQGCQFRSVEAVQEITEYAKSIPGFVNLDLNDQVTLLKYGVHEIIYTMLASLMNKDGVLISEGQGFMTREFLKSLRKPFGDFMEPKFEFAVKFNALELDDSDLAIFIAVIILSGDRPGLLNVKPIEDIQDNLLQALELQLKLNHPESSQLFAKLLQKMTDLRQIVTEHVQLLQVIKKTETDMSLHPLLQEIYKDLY

[2] = target: T7, Retinoid X receptor α ligand-binding domain (RXRα-LBD), His-tagged, purified (human, UniProt P19793 229-458); test: as above; settings: both partners purified
T7 construct: also called hRXRα-LBD; source: E. coli BL21 (DE3), purified (His-tag purification, Novagen instructions)
T7 sequence: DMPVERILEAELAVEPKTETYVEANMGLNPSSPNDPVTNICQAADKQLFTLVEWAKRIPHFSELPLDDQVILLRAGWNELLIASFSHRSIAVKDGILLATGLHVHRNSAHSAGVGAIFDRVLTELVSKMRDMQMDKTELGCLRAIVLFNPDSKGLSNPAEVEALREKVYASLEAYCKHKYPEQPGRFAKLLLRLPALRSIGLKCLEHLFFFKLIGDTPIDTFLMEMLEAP

T2 sequence (P10586 1301-1907 limits assumed): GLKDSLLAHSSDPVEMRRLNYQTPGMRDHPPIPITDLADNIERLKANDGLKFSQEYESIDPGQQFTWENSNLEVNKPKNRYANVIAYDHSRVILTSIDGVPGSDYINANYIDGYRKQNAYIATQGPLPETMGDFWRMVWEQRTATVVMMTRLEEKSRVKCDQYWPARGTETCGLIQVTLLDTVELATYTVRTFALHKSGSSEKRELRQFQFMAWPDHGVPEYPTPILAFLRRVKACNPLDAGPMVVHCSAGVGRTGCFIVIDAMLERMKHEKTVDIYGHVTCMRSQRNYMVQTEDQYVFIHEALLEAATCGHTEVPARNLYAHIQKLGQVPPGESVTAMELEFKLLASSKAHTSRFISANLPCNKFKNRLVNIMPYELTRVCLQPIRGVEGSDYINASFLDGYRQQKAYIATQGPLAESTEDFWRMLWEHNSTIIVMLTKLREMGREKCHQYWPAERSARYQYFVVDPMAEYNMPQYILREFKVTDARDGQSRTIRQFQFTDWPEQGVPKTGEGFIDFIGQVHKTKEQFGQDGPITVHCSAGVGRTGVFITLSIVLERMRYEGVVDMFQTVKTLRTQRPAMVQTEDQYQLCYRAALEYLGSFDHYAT
T3 sequence (P08575 610-1306 limits assumed): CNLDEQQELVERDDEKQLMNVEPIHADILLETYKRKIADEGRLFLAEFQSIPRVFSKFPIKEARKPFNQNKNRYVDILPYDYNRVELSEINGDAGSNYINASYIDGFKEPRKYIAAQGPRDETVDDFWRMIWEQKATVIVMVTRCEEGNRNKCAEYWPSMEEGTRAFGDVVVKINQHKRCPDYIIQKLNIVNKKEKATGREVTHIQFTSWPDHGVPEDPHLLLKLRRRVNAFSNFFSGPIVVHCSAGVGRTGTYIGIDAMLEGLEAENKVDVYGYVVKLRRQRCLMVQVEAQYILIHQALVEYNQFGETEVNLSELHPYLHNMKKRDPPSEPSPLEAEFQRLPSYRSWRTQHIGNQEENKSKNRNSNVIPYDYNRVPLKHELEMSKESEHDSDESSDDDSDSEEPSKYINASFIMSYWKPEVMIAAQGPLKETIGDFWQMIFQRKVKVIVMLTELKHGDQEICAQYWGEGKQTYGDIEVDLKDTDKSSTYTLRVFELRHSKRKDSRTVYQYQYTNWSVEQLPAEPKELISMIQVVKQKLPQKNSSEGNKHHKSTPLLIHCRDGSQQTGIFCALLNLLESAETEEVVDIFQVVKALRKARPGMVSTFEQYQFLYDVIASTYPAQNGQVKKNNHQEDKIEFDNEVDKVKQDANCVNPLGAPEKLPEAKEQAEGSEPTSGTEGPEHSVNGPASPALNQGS
T1 sequence (P17706 1-288): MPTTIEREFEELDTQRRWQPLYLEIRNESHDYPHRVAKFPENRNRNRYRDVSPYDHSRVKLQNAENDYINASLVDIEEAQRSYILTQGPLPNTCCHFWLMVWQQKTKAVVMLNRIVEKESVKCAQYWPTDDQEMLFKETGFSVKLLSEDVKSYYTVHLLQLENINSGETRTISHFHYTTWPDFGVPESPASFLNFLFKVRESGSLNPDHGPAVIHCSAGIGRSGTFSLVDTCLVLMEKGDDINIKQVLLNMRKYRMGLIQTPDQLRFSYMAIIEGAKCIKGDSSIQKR

COC[C@H]1OC(=O)c2coc3c2[C@@]1(C)C1=C(C3=O)[C@@H]2CCC(=O)[C@@]2(C)C[C@H]1OC(C)=O [wortmannin, reference compound]
effect on Rut or insulin-stimulated GLUT4 translocation (CHO-K1/GLUT4 cells; wortmannin 1 µM, Rut 20 µM or insulin 170 nM): completely inhibits

insulin: insulin used as stimulus in cellular GLUT4 translocation assay
insulin-stimulated GLUT4 translocation over the basal (CHO-K1/GLUT4 cells; IN Cell 1000 analyzer based system): around 1.5 fold
EC50 (CHO-K1/GLUT4 cells; insulin 5 min): 100 nM

pervanadate [reference compound]
IC50 (TC-PTP): 36 nM
IC50 (LAR): 26 nM
IC50 (CD45): 6 nM
IC50 (PTP1B): 15 nM
IC50 (PTPα): 59 nM
EC50 (CHO-K1/GLUT4 cells; pervanadate 30 min): 51000 nM
insulin-induced glucose uptake (3T3-L1 adipocytes): increase the insulin-stimulated glucose uptake

B1: Steroid receptor coinducer-1 fragment SRC1(613-773), His-tagged, purified (domain or fragment, human, UniProt Q15788 613-773, looked up)
chain: LHNNDRLSDGDSKYSQTSHKLVQLLTTTAEQQLRHADIDTSCKDVLSCTGTSNSASANSSGGSCPSSHSSLTERHKILHRLLQEGSPSDITTLSVEPDKKDSASTSVSVTGQVQGNSSIKLELDASKKKESKDHQLLRYLLDKDEKDLRSTPNLSLDDVKV
notes: plasmid pET15b-SRC1(613-773); Human cDNA is stated as template for the two-hybrid SRC1(613-773) clone; source: E. coli BL21 (DE3), purified (His-tag purification, Novagen instructions)
binding result [1]: binds
Kd [2]: 1160 nM
